Test results as given in ChEMBL document CHEMBL2073758, “Agmatine is efficiently transported by non-neuronal monoamine transporters extraneuronal monoamine transporter (EMT) and organic cation transporter 2 (OCT2)” (J Pharmacol Exp Ther, 2003).

T1: Solute carrier family 22 member 1 (Rattus norvegicus, UniProt Q63089)
T1 sequence (Q63089 whole entry): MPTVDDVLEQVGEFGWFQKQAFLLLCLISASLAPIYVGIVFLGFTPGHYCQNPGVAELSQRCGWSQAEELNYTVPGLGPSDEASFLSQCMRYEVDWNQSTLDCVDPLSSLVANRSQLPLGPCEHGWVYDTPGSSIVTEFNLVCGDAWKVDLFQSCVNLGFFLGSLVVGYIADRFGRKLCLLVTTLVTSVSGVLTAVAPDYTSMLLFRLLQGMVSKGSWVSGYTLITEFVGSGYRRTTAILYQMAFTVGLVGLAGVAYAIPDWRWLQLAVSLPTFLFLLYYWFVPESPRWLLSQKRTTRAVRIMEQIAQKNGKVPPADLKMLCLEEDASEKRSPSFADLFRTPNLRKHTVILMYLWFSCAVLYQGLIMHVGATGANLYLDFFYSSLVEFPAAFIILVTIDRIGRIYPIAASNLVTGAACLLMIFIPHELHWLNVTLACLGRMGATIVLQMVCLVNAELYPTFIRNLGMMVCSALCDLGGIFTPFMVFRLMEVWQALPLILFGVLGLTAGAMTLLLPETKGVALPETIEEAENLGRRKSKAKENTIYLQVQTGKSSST

T2: Solute carrier family 22 member 1 (Homo sapiens, UniProt O15245)
T2 sequence (O15245 whole entry): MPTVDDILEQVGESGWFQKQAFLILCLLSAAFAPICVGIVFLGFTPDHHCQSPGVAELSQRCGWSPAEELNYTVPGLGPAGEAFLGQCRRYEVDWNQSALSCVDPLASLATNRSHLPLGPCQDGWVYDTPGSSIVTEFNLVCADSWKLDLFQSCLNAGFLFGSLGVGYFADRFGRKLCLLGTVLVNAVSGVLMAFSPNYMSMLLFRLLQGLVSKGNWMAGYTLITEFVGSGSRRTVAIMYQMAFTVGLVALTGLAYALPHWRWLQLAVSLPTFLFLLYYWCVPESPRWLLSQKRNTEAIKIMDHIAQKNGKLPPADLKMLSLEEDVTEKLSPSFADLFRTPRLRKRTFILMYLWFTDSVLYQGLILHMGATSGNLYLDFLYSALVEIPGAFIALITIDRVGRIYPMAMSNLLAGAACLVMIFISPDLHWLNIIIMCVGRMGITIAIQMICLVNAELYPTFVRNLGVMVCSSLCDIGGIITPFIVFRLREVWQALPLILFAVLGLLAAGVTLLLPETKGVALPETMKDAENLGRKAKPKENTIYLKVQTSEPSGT

T3: Solute carrier family 22 member 2 (Rattus norvegicus, UniProt Q9R0W2)
T3 sequence (Q9R0W2 whole entry): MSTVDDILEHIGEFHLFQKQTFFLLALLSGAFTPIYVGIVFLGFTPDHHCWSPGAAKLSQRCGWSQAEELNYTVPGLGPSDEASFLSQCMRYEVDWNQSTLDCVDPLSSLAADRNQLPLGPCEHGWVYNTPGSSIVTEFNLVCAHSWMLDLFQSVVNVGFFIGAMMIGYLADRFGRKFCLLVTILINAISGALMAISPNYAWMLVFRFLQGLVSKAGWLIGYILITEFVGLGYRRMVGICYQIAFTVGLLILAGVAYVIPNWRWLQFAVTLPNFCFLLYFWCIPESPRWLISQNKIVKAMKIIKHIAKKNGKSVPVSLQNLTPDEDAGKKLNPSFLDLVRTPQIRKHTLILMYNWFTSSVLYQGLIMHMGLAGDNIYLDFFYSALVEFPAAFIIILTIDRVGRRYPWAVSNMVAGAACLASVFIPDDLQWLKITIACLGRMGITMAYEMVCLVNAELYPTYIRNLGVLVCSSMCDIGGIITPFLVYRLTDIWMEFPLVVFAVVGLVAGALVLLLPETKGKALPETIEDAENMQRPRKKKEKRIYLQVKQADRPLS

T4: Solute carrier family 22 member 2 (Homo sapiens, UniProt O15244)
T4 sequence (O15244 whole entry): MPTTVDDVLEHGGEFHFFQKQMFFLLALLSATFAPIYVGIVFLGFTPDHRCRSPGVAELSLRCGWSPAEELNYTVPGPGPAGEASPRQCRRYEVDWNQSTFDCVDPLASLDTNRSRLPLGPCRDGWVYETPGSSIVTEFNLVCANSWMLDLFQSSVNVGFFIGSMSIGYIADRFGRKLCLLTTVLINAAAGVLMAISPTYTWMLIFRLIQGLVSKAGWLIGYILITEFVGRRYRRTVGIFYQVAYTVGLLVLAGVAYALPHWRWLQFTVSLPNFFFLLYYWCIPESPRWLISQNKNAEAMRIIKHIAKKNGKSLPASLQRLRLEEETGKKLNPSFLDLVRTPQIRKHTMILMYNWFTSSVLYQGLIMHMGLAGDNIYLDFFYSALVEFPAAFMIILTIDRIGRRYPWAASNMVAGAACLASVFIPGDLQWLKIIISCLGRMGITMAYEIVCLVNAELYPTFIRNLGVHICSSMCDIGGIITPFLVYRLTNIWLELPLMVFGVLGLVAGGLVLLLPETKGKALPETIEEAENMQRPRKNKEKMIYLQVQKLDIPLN

T5: Solute carrier family 22 member 3 (Rattus norvegicus, UniProt O88446)
T5 sequence (O88446 whole entry): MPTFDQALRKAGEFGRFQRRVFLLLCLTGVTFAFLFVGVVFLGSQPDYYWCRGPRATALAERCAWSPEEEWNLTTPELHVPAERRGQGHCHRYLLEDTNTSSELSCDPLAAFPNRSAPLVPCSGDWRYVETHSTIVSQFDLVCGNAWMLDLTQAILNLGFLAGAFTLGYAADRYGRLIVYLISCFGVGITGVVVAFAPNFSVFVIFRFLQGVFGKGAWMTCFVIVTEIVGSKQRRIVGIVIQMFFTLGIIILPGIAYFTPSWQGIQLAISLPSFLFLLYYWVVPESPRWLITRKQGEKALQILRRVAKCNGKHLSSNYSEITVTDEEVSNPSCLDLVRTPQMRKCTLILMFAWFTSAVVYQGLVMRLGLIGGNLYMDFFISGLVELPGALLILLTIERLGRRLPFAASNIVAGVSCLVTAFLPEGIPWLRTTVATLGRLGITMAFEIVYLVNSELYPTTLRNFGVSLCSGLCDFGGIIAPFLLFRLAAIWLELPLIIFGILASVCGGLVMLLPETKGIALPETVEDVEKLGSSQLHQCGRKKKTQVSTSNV

B1: Solute carrier family 22 member 2 (Homo sapiens) (protein)
chain: T4 sequence (O15244 whole entry)
B2: Solute carrier family 22 member 3 (Rattus norvegicus) (protein)
chain: T5 sequence (O88446 whole entry)
B3: Solute carrier family 22 member 2 (Rattus norvegicus) (protein)
chain: T3 sequence (Q9R0W2 whole entry)
B4: Solute carrier family 22 member 3 (Homo sapiens) (protein)
chain: MPSFDEALQRVGEFGRFQRRVFLLLCLTGVTFAFLFVGVVFLGTQPDHYWCRGPSAAALAERCGWSPEEEWNRTAPASRGPEPPERRGRCQRYLLEAANDSASATSALSCADPLAAFPNRSAPLVPCRGGWRYAQAHSTIVSEFDLVCVNAWMLDLTQAILNLGFLTGAFTLGYAADRYGRIVIYLLSCLGVGVTGVVVAFAPNFPVFVIFRFLQGVFGKGTWMTCYVIVTEIVGSKQRRIVGIVIQMFFTLGIIILPGIAYFIPNWQGIQLAITLPSFLFLLYYWVVPESPRWLITRKKGDKALQILRRIAKCNGKYLSSNYSEITVTDEEVSNPSFLDLVRTPQMRKCTLILMFAWFTSAVVYQGLVMRLGIIGGNLYIDFFISGVVELPGALLILLTIERLGRRLPFAASNIVAGVACLVTAFLPEGIAWLRTTVATLGRLGITMAFEIVYLVNSELYPTTLRNFGVSLCSGLCDFGGIIAPFLLFRLAAVWLELPLIIFGILASICGGLVMLLPETKGIALPETVDDVEKLGSPHSCKCGRNKKTPVSRSHL

What was measured:
[1] = molecular target: T1, Solute carrier family 22 member 1; assay: (§1) TP_TRANSPORTER: inhibition of uptake of 0.1 uM MPP+ in OCT1-expressing 293 cells; format: functional, cell-based, HEK293
[2] = molecular target: T2, Solute carrier family 22 member 1; assay: as §1; format: functional, cell-based, HEK293
[3] = molecular target: T1, Solute carrier family 22 member 1; assay: (§2) TP_TRANSPORTER: uptake in OCT1-expressing 293 cells; format: functional, cell-based; details: human, hek293
[4] = molecular target: T2, Solute carrier family 22 member 1; assay: as §2; format: functional, cell-based; details: hek293
[5] = molecular target: T3, Solute carrier family 22 member 2; assay: (§3) TP_TRANSPORTER: uptake in OCT2-expressing 293 cells; format: functional, cell-based; details: human, hek293
[6] = molecular target: T4, Solute carrier family 22 member 2; assay: as §3; format: functional, cell-based; details: hek293
[7] = molecular target: T5, Solute carrier family 22 member 3; assay: (§4) TP_TRANSPORTER: uptake in OCT3-expressing 293 cells; format: functional, cell-based; details: human, hek293
[8] = substrate: N=C(N)NCCCCN; assay: as §3; format: functional, cell-based, HEK293
[9] = substrate: N=C(N)NCCCCN; assay: as §4; format: functional, cell-based, HEK293

Molecule | Activity [3] | Activity [4] | Km [8] | Km [9] | further results
N=C(N)NCCCCN [AGMATINE] | substrate [] | substrate [] | – | – | Ki [1]: 8.6 mM; Ki [2]: 24 mM
C[n+]1ccc(-c2ccccc2)cc1 | substrate [] | 32 µM | – | – | Activity [5]: substrate []; Activity [6]: 7.8 µM; Activity [7]: substrate []
B1 | – | – | 1400 µM | – | –
B2 | – | – | – | 900 µM | –
B3 | – | – | 950 µM | – | –
B4 | – | – | – | 2500 µM | –
